# Like-named read-outs stand apart in the source and are kept apart here.
# Assays:
# [1] = physchem; details: 25 °C, thermodynamic from solid
# [2] = 0.1N HCL, 1.0% DMSO, 24-hour incubation at ambient temperature, maximum theoretical compound concentration 100 μM
# [3] = 1×PBS buffer (pH 7.4), 1.0% DMSO, 24-hour incubation at ambient temperature, maximum theoretical compound concentration 100 μM
Structure (SMILES),pH 2 solubility [2],pH 7 solubility [3],"solubility ([1]; fasted state simulated intestinal fluid (FaSSIF), fassif)","solubility ([1]; fed state simulated intestinal fluid (FeSSIF), fessif)",pH 2 solubility (pH 2),pH 7 solubility (pH 7.4)
"C[C@H](N)C(=O)N(c1nn(CC(F)(F)F)c2c(-c3ccc(C#CC(C)(C)S(C)(=O)=O)nc3[C@H](Cc3cc(F)cc(F)c3)NC(=O)Cn3nc(C(F)(F)F)c4c3C(F)(F)[C@@H]3C[C@H]43)ccc(Cl)c12)S(C)(=O)=O [Compound 18, (S)-2-amino-N-(4-chloro-7-(2-((S)-1-(2-((3bS,4aR)-5,5-difluoro-3-(trifluoromethyl)-3b,4,4a,5-tetrahydro-1H-cyclopropa[3,4]cyclopenta[1,2-c]pyrazol-1-yl)acetamido)-2-(3,5-difluorophenyl)ethyl)-6-(3-methyl-3-(methylsulfonyl)but-1-yn-1-yl)pyridin-3-yl)-1-(2,2,2-trifluoroethyl)-1H-indazol-3-yl)-N-(methylsulfonyl)propenamide]",60 μM,1 μM,0.5 µg/mL,0.4 µg/mL,,
"CC(C)(CC(=O)N(c1nn(CC(F)(F)F)c2c(-c3ccc(C#CC(C)(C)S(C)(=O)=O)nc3[C@H](Cc3cc(F)cc(F)c3)NC(=O)Cn3nc(C(F)(F)F)c4c3C(F)(F)[C@@H]3C[C@H]43)ccc(Cl)c12)S(C)(=O)=O)c1c(CC(=O)N[C@@H](CC(=O)O)C(=O)O)cc(C(N)=O)cc1OP(=O)(O)O [Compound 69, (2-(5-carbamoyl-2-(4-(N-(4-chloro-7-(2-((S)-1-(2-((3bS,4aR)-5,5-difluoro-3-(trifluoromethyl)-3b,4,4a,5-tetrahydro-1H-cyclopropa[3,4]cyclopenta[1,2-c]pyrazol-1-yl)acetamido)-2-(3,5-difluorophenyl)ethyl)-6-(3-methyl-3-(methylsulfonyl)but-1-yn-1-yl)pyridin-3-yl)-1-(2,2,2-trifluoroethyl)-1H-indazol-3-yl)methylsulfonamido)-2-methyl-4-oxobutan-2-yl)-3-(phosphonooxy)phenyl)acetyl)-L-aspartic acid]",,,,,3/75 μM,3/75 μM
"CC(C)[C@H](N)C(=O)N(c1nn(CC(F)(F)F)c2c(-c3ccc(C#CC(C)(C)S(C)(=O)=O)nc3[C@H](Cc3cc(F)cc(F)c3)NC(=O)Cn3nc(C(F)(F)F)c4c3C(F)(F)[C@@H]3C[C@H]43)ccc(Cl)c12)S(C)(=O)=O [Compound 20, (S)-2-amino-N-(4-chloro-7-(2-((S)-1-(2-((3bS,4aR)-5,5-difluoro-3-(trifluoromethyl)-3b,4,4a,5-tetrahydro-1H-cyclopropa[3,4]cyclopenta[1,2-c]pyrazol-1-yl)acetamido)-2-(3,5-difluorophenyl)ethyl)-6-(3-methyl-3-(methylsulfonyl)but-1-yn-1-yl)pyridin-3-yl)-1-(2,2,2-trifluoroethyl)-1H-indazol-3-yl)-3-methyl-N-(methylsulfonyl)butanamide]",69 μM,2 μM,,,,
"C[C@H](CC(=O)O)C(=O)N(c1nn(CC(F)(F)F)c2c(-c3ccc(C#CC(C)(C)S(C)(=O)=O)nc3[C@H](Cc3cc(F)cc(F)c3)NC(=O)Cn3nc(C(F)(F)F)c4c3C(F)(F)[C@@H]3C[C@H]43)ccc(Cl)c12)S(C)(=O)=O [Compound 26, (R)-4-(N-(4-chloro-7-(2-((S)-1-(2-((3bS,4aR)-5,5-difluoro-3-(trifluoromethyl)-3b,4,4a,5-tetrahydro-1H-cyclopropa[3,4]cyclopenta[1,2-c]pyrazol-1-yl)acetamido)-2-(3,5-difluorophenyl)ethyl)-6-(3-methyl-3-(methylsulfonyl)but-1-yn-1-yl)pyridin-3-yl)-1-(2,2,2-trifluoroethyl)-1H-indazol-3-yl)methylsulfonamido)-3-methyl-4-oxobutanoic acid]",1/1 μM,1/1 μM,,,,
"CC(C)(CC(=O)N(c1nn(CC(F)(F)F)c2c(-c3ccc(C#CC(C)(C)S(C)(=O)=O)nc3[C@H](Cc3cc(F)cc(F)c3)NC(=O)Cn3nc(C(F)(F)F)c4c3C(F)(F)[C@@H]3C[C@H]43)ccc(Cl)c12)S(C)(=O)=O)c1c(CC(=O)N[C@@H](CC(=O)O)C(=O)O)cccc1OP(=O)(O)O [Compound 71, (2-(2-(4-(N-(4-chloro-7-(2-((S)-1-(2-((3bS,4aR)-5,5-difluoro-3-(trifluoromethyl)-3b,4,4a,5-tetrahydro-1H-cyclopropa[3,4]cyclopenta[1,2-c]pyrazol-1-yl)acetamido)-2-(3,5-difluorophenyl)ethyl)-6-(3-methyl-3-(methylsulfonyl)but-1-yn-1-yl)pyridin-3-yl)-1-(2,2,2-trifluoroethyl)-1H-indazol-3-yl)methylsulfonamido)-2-methyl-4-oxobutan-2-yl)-3-(phosphonooxy)phenyl)acetyl)-L-aspartic acid]",,,,,2/88 μM,2/88 μM
"CC(C)(C#Cc1ccc(-c2ccc(Cl)c3c(N(C(=O)CNC(=O)C(=O)O)S(C)(=O)=O)nn(CC(F)(F)F)c23)c([C@H](Cc2cc(F)cc(F)c2)NC(=O)Cn2nc(C(F)(F)F)c3c2C(F)(F)[C@@H]2C[C@H]32)n1)S(C)(=O)=O [Compound 13, 2-((2-(N-(4-chloro-7-(2-((S)-1-(2-((3bS,4aR)-5,5-difluoro-3-(trifluoromethyl)-3b,4,4a,5-tetrahydro-1H-cyclopropa[3,4]cyclopenta[1,2-c]pyrazol-1-yl)acetamido)-2-(3,5-difluorophenyl)ethyl)-6-(3-methyl-3-(methylsulfonyl)but-1-yn-1-yl)pyridin-3-yl)-1-(2,2,2-trifluoroethyl)-1H-indazol-3-yl)methylsulfonamido)-2-oxoethyl)amino)-2-oxoacetic acid]",1 μM,90 μM,,,,
CC(C)(CC(=O)N(c1nn(CC(F)(F)F)c2c(-c3ccc(C#CC(C)(C)S(C)(=O)=O)nc3[C@H](Cc3cc(F)cc(F)c3)NC(=O)Cn3nc(C(F)(F)F)c4c3C(F)(F)[C@@H]3C[C@H]43)ccc(Cl)c12)S(C)(=O)=O)c1c(CC(=O)O)cc(C(N)=O)cc1OP(=O)(O)O [Compound 68],,,,,<1/65 μM,<1/65 μM
"Cc1cc(CC(=O)NCC(=O)O)c(C(C)(C)CC(=O)N(c2nn(CC(F)(F)F)c3c(-c4ccc(C#CC(C)(C)S(C)(=O)=O)nc4[C@H](Cc4cc(F)cc(F)c4)NC(=O)Cn4nc(C(F)(F)F)c5c4C(F)(F)[C@@H]4C[C@H]54)ccc(Cl)c23)S(C)(=O)=O)c(OP(=O)(O)O)c1 [Compound 63, (2-(2-(4-(N-(4-chloro-7-(2-((S)-1-(2-((3bS,4aR)-5,5-difluoro-3-(trifluoromethyl)-3b,4,4a,5-tetrahydro-1H-cyclopropa[3,4]cyclopenta[1,2-c]pyrazol-1-yl)acetamido)-2-(3,5-difluorophenyl)ethyl)-6-(3-methyl-3-(methylsulfonyl)but-1-yn-1-yl)pyridin-3-yl)-1-(2,2,2-trifluoroethyl)-1H-indazol-3-yl)methylsulfonamido)-2-methyl-4-oxobutan-2-yl)-5-methyl-3-(phosphonooxy)phenyl)acetyl)glycine]",,,,,1/85 μM,1/85 μM
"CC(C)(C#Cc1ccc(-c2ccc(Cl)c3c(N(C(=O)C[N+](C)(C)C)S(C)(=O)=O)nn(CC(F)(F)F)c23)c([C@H](Cc2cc(F)cc(F)c2)NC(=O)Cn2nc(C(F)(F)F)c3c2C(F)(F)[C@@H]2C[C@H]32)n1)S(C)(=O)=O [Compound 5, 2-(N-(4-chloro-7-(2-((S)-1-(2-((3bS,4aR)-5,5-difluoro (trifluoromethyl)-3b,4,4a,5-tetrahydro-1H-cyclopropa[3,4]cyclopenta[1,2-c]pyrazolyl)acetamido)-2-(3,5-difluorophenyl)ethyl)-6-(3-methyl-3-(methylsulfonyl)but-1-ynyl)pyridin-3-yl)-1-(2,2,2-trifluoroethyl)-1H-indazol-3-yl)methylsulfonamido)-N,N,N-trimethyl-2-oxoethan-1-aminium]",45 μM,6 μM,,,,
CC(C)(C#Cc1ccc(-c2ccc(Cl)c3c(N(C(=O)CN(CC(=O)O)CC(=O)O)S(C)(=O)=O)nn(CC(F)(F)F)c23)c([C@H](Cc2cc(F)cc(F)c2)NC(=O)Cn2nc(C(F)(F)F)c3c2C(F)(F)[C@@H]2C[C@H]32)n1)S(C)(=O)=O [Compound 23],14 μM,22 μM,,,,
"CC(C)[C@@H](C(=O)N(c1nn(CC(F)(F)F)c2c(-c3ccc(C#CC(C)(C)S(C)(=O)=O)nc3[C@H](Cc3cc(F)cc(F)c3)NC(=O)Cn3nc(C(F)(F)F)c4c3C(F)(F)[C@@H]3C[C@H]43)ccc(Cl)c12)S(C)(=O)=O)N(C)C [Compound 8, N-(4-chloro-7-(2-((S)-1-(2-((3bS,4aR)-5,5-difluoro-3-(trifluoromethyl)-3b,4,4a,5-tetrahydro-1H-cyclopropa[3,4]cyclopenta[1,2-c]pyrazol-1-yl)acetamido)-2-(3,5-difluorophenyl)ethyl)-6-(3-methyl-3-(methylsulfonyl)but-1-yn-1-yl)pyridin-3-yl)-1-(2,2,2-trifluoroethyl)-1H-indazol-3-yl)-2-(dimethylamino)-3-methyl-N-(methylsulfonyl)butanamide]",51 μM,1 μM,,,,
"CNCC(=O)N(c1nn(CC(F)(F)F)c2c(-c3ccc(C#CC(C)(C)S(C)(=O)=O)nc3[C@H](Cc3cc(F)cc(F)c3)NC(=O)Cn3nc(C(F)(F)F)c4c3C(F)(F)[C@@H]3C[C@H]43)ccc(Cl)c12)S(C)(=O)=O [Compound 19, (N-(4-chloro-7-(2-((S)-1-(2-((3bS,4aR)-5,5-difluoro (trifluoromethyl)-3b,4,4a,5-tetrahydro-1H-cyclopropa[3,4]cyclopenta[1,2-c]pyrazolyl)acetamido)-2-(3,5-difluorophenyl)ethyl)-6-(3-methyl-3-(methylsulfonyl)but-1-ynyl)pyridin-3-yl)-1-(2,2,2-trifluoroethyl)-1H-indazol-3-yl)-2-(methylamino)-N-(methylsulfonyl)acetamide)]",37 μM,6 μM,,,,
